What all share (assay): relative viability (nuclei count vs DMSO), 5 days (fraction); higher = more cells survive
Compound in the test “Bexarotene + Foretinib”: C=C(c1ccc(C(=O)O)cc1)c1cc2c(cc1C)C(C)(C)CCC2(C)C [Bexarotene] + COc1cc2c(Oc3ccc(NC(=O)C4(C(=O)Nc5ccc(F)cc5)CC4)cc3F)ccnc2cc1OCCCN1CCOCC1 [Foretinib] (partner 0.25 µM)
The method, boiled down:
(§1)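 Lung cancer cell lines, seeded in 1536-well plates, were treated the following day by pin tool with a single drug or with five library-drug doses (not always all listed) in √10 steps on top of a fixed anchor-drug dose. Cells were fixed and nuclei stained in one step after 5 days, and nuclei were counted. Relative viability is the nuclei count for treated wells divided by that for vehicle wells, reported as medians of duplicate plates.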

Compound in the test “Bexarotene + Pictilisib”: C=C(c1ccc(C(=O)O)cc1)c1cc2c(cc1C)C(C)(C)CCC2(C)C [Bexarotene] + CS(=O)(=O)N1CCN(Cc2cc3nc(-c4cccc5[nH]ncc45)nc(N4CCOCC4)c3s2)CC1 [Pictilisib] (partner 1 µM)
The method, boiled down:
as §1

Compound in the test “Bexarotene + AZD7762”: C=C(c1ccc(C(=O)O)cc1)c1cc2c(cc1C)C(C)(C)CCC2(C)C [Bexarotene] + NC(=O)Nc1cc(-c2cccc(F)c2)sc1C(=O)N[C@H]1CCCNC1 [AZD7762] (partner 0.2 µM)
Put shortly: as §1

Compound in the test “Bexarotene + Vorinostat”: C=C(c1ccc(C(=O)O)cc1)c1cc2c(cc1C)C(C)(C)CCC2(C)C [Bexarotene] + O=C(CCCCCCC(=O)Nc1ccccc1)NO [Vorinostat] (partner 1 µM)
The method, boiled down:
as §1

LOU-NH91: the relative viability with Bexarotene + Foretinib (first compound 0.08 µM) amounted to 0.88; in the test with Bexarotene + Foretinib (first compound 0.253 µM), 0.89; with Bexarotene + Foretinib (first compound 0.8 µM), 0.84; in the test with Bexarotene + Foretinib (first compound 2.53 µM) it was 0.878; with Bexarotene + Foretinib (first compound 8 µM) it was 0.786; in the test with Bexarotene + Pictilisib (first compound 0.08 µM), 0.546. Besides, the relative viability with Bexarotene + Pictilisib (first compound 0.253 µM) was 0.537; with Bexarotene + Pictilisib (first compound 0.8 µM), 0.508; in the test with Bexarotene + Pictilisib (first compound 2.53 µM), 0.492; in the test with Bexarotene + Pictilisib (first compound 8 µM) it was 0.505; with Bexarotene + AZD7762 (first compound 0.08 µM) it was 0.85; with Bexarotene + AZD7762 (first compound 0.253 µM) it was 0.766. Moreover, the relative viability in the test with Bexarotene + AZD7762 (first compound 0.8 µM) is 0.759; in the test with Bexarotene + AZD7762 (first compound 2.53 µM) it was 0.741; with Bexarotene + AZD7762 (first compound 8 µM), 0.712; in the test with Bexarotene + Vorinostat (first compound 0.08 µM), 0.973; with Bexarotene + Vorinostat (first compound 0.253 µM), 0.956; in the test with Bexarotene + Vorinostat (first compound 0.8 µM), 0.933. The relative viability was 0.836 with Bexarotene + Vorinostat (first compound 2.53 µM) and 0.849 with Bexarotene + Vorinostat (first compound 8 µM).

Turning to NCI-H2347, the relative viability in the test with Bexarotene + Foretinib (first compound 0.08 µM) worked out at 0.878; with Bexarotene + Foretinib (first compound 0.253 µM) it was 0.783; with Bexarotene + Foretinib (first compound 0.8 µM) it was 0.703; in the test with Bexarotene + Foretinib (first compound 2.53 µM), 0.882; with Bexarotene + Foretinib (first compound 8 µM), 1.09; with Bexarotene + Pictilisib (first compound 0.08 µM), 0.597. The relative viability is 0.62 with Bexarotene + Pictilisib (first compound 0.253 µM); 0.461 with Bexarotene + Pictilisib (first compound 0.8 µM); 0.743 with Bexarotene + Pictilisib (first compound 2.53 µM); 0.605 in the test with Bexarotene + Pictilisib (first compound 8 µM); 0.794 with Bexarotene + AZD7762 (first compound 0.08 µM); 0.86 in the test with Bexarotene + AZD7762 (first compound 0.253 µM). Moreover, the relative viability came out at 0.688 in the test with Bexarotene + AZD7762 (first compound 0.8 µM); 0.691 in the test with Bexarotene + AZD7762 (first compound 2.53 µM); 0.754 in the test with Bexarotene + AZD7762 (first compound 8 µM); 0.703 with Bexarotene + Vorinostat (first compound 0.08 µM); 0.622 in the test with Bexarotene + Vorinostat (first compound 0.253 µM); 0.513 with Bexarotene + Vorinostat (first compound 0.8 µM). Besides, the relative viability in the test with Bexarotene + Vorinostat (first compound 2.53 µM) turned out to be 0.681; with Bexarotene + Vorinostat (first compound 8 µM) it was 0.557.

In the case of NCI-H2126, the relative viability is 0.971 with Bexarotene + Foretinib (first compound 0.08 µM); 1.2 in the test with Bexarotene + Foretinib (first compound 0.253 µM); 1.1 with Bexarotene + Foretinib (first compound 0.8 µM); 1.22 in the test with Bexarotene + Foretinib (first compound 2.53 µM); 1.07 with Bexarotene + Foretinib (first compound 8 µM); 0.558 in the test with Bexarotene + Pictilisib (first compound 0.08 µM). For the same cell line, the relative viability stood at 0.512 with Bexarotene + Pictilisib (first compound 0.253 µM); 0.462 with Bexarotene + Pictilisib (first compound 0.8 µM); 0.514 in the test with Bexarotene + Pictilisib (first compound 2.53 µM); 0.519 in the test with Bexarotene + Pictilisib (first compound 8 µM); 1.07 with Bexarotene + AZD7762 (first compound 0.08 µM); 0.971 with Bexarotene + AZD7762 (first compound 0.253 µM). The relative viability with Bexarotene + AZD7762 (first compound 0.8 µM) is 0.916; with Bexarotene + AZD7762 (first compound 2.53 µM) it was 0.994; with Bexarotene + AZD7762 (first compound 8 µM) it was 1.02; in the test with Bexarotene + Vorinostat (first compound 0.08 µM), 0.882; in the test with Bexarotene + Vorinostat (first compound 0.253 µM), 0.902; with Bexarotene + Vorinostat (first compound 0.8 µM), 0.703. For the same cell line, the relative viability in the test with Bexarotene + Vorinostat (first compound 2.53 µM) worked out at 0.762; with Bexarotene + Vorinostat (first compound 8 µM), 0.751.

As for HCC-827, the relative viability with Bexarotene + Foretinib (first compound 0.08 µM) amounted to 1.07; in the test with Bexarotene + Foretinib (first compound 0.253 µM), 1.02; in the test with Bexarotene + Foretinib (first compound 0.8 µM) it was 0.992; in the test with Bexarotene + Foretinib (first compound 2.53 µM) it was 1.09; in the test with Bexarotene + Foretinib (first compound 8 µM) it was 0.976; with Bexarotene + Pictilisib (first compound 0.08 µM) it was 1.07. In addition, the relative viability with Bexarotene + Pictilisib (first compound 0.253 µM) was found to be 1.08; with Bexarotene + Pictilisib (first compound 0.8 µM) it was 0.888; with Bexarotene + Pictilisib (first compound 2.53 µM), 1.02; with Bexarotene + Pictilisib (first compound 8 µM), 0.971; with Bexarotene + AZD7762 (first compound 0.08 µM), 0.227; with Bexarotene + AZD7762 (first compound 0.253 µM), 0.213. The relative viability with Bexarotene + AZD7762 (first compound 0.8 µM) came out at 0.405; in the test with Bexarotene + AZD7762 (first compound 2.53 µM) it was 0.196; with Bexarotene + AZD7762 (first compound 8 µM), 0.36; with Bexarotene + Vorinostat (first compound 0.08 µM), 0.906; with Bexarotene + Vorinostat (first compound 0.253 µM), 0.674; with Bexarotene + Vorinostat (first compound 0.8 µM) it was 0.775. Moreover, the relative viability turned out to be 0.781 with Bexarotene + Vorinostat (first compound 2.53 µM) and 0.821 with Bexarotene + Vorinostat (first compound 8 µM).

Regarding NCI-H3122, the relative viability turned out to be 0.99 with Bexarotene + Foretinib (first compound 0.08 µM); 0.988 with Bexarotene + Foretinib (first compound 0.253 µM); 0.957 with Bexarotene + Foretinib (first compound 0.8 µM); 0.9 with Bexarotene + Foretinib (first compound 2.53 µM); 0.975 with Bexarotene + Foretinib (first compound 8 µM); 0.82 with Bexarotene + Pictilisib (first compound 0.08 µM). Also, the relative viability was 0.821 in the test with Bexarotene + Pictilisib (first compound 0.253 µM); 0.647 with Bexarotene + Pictilisib (first compound 0.8 µM); 0.855 with Bexarotene + Pictilisib (first compound 2.53 µM); 0.802 with Bexarotene + Pictilisib (first compound 8 µM); 1.05 with Bexarotene + AZD7762 (first compound 0.08 µM); 1 in the test with Bexarotene + AZD7762 (first compound 0.253 µM). Besides, the relative viability with Bexarotene + AZD7762 (first compound 0.8 µM) came out at 0.944; in the test with Bexarotene + AZD7762 (first compound 2.53 µM) it was 0.968; in the test with Bexarotene + AZD7762 (first compound 8 µM), 1.13; with Bexarotene + Vorinostat (first compound 0.08 µM) it was 1.17; with Bexarotene + Vorinostat (first compound 0.253 µM), 1; with Bexarotene + Vorinostat (first compound 0.8 µM), 1.01. Also, the relative viability with Bexarotene + Vorinostat (first compound 2.53 µM) stood at 1.12; in the test with Bexarotene + Vorinostat (first compound 8 µM), 1.11.

In the case of HOP-62, the relative viability with Bexarotene + Foretinib (first compound 0.08 µM) is 1.35; in the test with Bexarotene + Foretinib (first compound 0.253 µM), 1.28; with Bexarotene + Foretinib (first compound 0.8 µM) it was 1.23; with Bexarotene + Foretinib (first compound 2.53 µM), 1.14; in the test with Bexarotene + Foretinib (first compound 8 µM), 1.08; in the test with Bexarotene + Pictilisib (first compound 0.08 µM) it was 1.04. Besides, the relative viability with Bexarotene + Pictilisib (first compound 0.253 µM) turned out to be 0.811; in the test with Bexarotene + Pictilisib (first compound 0.8 µM) it was 0.684; with Bexarotene + Pictilisib (first compound 2.53 µM), 0.79; with Bexarotene + Pictilisib (first compound 8 µM), 0.626; with Bexarotene + AZD7762 (first compound 0.08 µM), 0.626; with Bexarotene + AZD7762 (first compound 0.253 µM) it was 1.04. Also, the relative viability was 0.718 with Bexarotene + AZD7762 (first compound 0.8 µM); 0.412 with Bexarotene + AZD7762 (first compound 2.53 µM); 0.669 in the test with Bexarotene + AZD7762 (first compound 8 µM); 0.808 in the test with Bexarotene + Vorinostat (first compound 0.08 µM); 0.831 in the test with Bexarotene + Vorinostat (first compound 0.253 µM); 0.709 with Bexarotene + Vorinostat (first compound 0.8 µM). Besides, the relative viability with Bexarotene + Vorinostat (first compound 2.53 µM) came out at 0.555; with Bexarotene + Vorinostat (first compound 8 µM) it was 0.624.

The values are drawn from the supplement of paper PMC10307832.
